Measured values published in US20060111408A1, “Therapeutic benzothiazole compounds” (priority 2000, published 2006).

Columns and labels:
human recombinant ERβ = molecular target: T1, human recombinant ERβ (Homo sapiens, UniProt Q92731); test: Fluorescence polarization estrogen receptor (ERFP) binding assay, ERβ; details: for Ki: fluorescence polarization competition with Fluormone ES2, IC50 converted to Ki by Kenakin formula, read-out: FP β-ER Ki; for FP Selectivity: β-ER over α-ER, from FP Ki values
T1 construct: purchased PanVera (Madison, Wis.)
Method: (§1) Abbreviated Procedure for Fluorescence Polarization Estrogen Receptor (ERFP) Binding Assay
(§2) A homogeneous mix-and-measure estrogen receptor (ER) binding assay which utilizes fluorescence polarization (FP) technology is used to identify compounds with affinity for the estrogen receptor. Purchased from PanVera (Madison, Wis.), assay reagents include purified human recombinant ERα, human recombinant ERβ, ES2 screening buffer (100 mM potassium phosphate, pH 7.4, 100 μg/mL bovine gamma globulin), and Fluormone™ ES2.
(§3) For competition binding experiments, dilutions of test compounds are prepared at 2× the final assay concentration in 0.2% DMSO in ES2 Screening buffer on TECAN Genosys, and 25 μL compound/well is dispensed into black Costar ½ volume 96-well plates. […] Plates are gently shaken for at least 5 minutes to mix and incubated for at least 1 hr 45 minutes to achieve equilibrium. (Reaction mixtures are stable for up to 5 hours).
(§4) Polarized fluorescence intensity values are collected and subsequently converted electronically to millipolarization (mp) values. Following data reduction and normalization with Excel and/or Prism software, % Ctrl values at the various test concentrations are used to obtain IC50 values via non-linear regression analysis of a four-parameter logistic equation.

human recombinant ERα = molecular target: T2, human recombinant ERα (Homo sapiens, UniProt P03372); test: Fluorescence polarization estrogen receptor (ERFP) binding assay, ERα; details: fluorescence polarization competition with Fluormone ES2; IC50 converted to Ki by Kenakin formula; read-out: FP α-ER Ki
T2 construct: purchased PanVera (Madison, Wis.)
T2 sequence (P03372 1-595): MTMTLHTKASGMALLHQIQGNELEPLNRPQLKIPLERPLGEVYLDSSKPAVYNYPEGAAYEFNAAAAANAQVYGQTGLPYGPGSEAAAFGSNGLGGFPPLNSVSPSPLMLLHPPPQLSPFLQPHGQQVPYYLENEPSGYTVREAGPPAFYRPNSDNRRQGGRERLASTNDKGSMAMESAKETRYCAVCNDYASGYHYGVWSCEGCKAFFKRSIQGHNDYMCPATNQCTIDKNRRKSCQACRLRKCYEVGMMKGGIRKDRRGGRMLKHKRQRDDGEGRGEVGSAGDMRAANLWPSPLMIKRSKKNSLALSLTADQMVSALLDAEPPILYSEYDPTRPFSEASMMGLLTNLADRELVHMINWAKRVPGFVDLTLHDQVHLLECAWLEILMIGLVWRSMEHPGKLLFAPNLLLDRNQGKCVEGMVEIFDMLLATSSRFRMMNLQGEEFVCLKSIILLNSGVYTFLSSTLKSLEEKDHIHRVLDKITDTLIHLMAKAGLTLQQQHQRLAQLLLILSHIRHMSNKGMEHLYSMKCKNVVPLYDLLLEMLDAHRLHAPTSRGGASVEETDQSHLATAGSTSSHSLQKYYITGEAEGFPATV
Method: as §1, §2
as §3, with “hours). After centrifugation to remove air bubbles, plates are read on an LJL Analyst or Acquest equipped with Criterion software at the following settings: Fluorescence Polarization Mode; Static Polarizer on Excitation Side; Dynamic Polarizer on Emission Side; Excitation λ=485+/−10 nm; Emission λ=520+/−12.5 nm.” for “hours).”
as §4
Reference: Bolger et al., Rapid Screening of Environmental Chemicals for Estrogen Receptor Binding Capacity, Environmental Health Pespectives: 106 (1998), 1-7.

βER = molecular target: T3, βER (Homo sapiens, UniProt Q92731); test: Cell-based assay for ER transcriptional activity (ERE β-gal reporter), βER-transfected 293 cells; details: for EC50: 293 cells transfected with βER and ERE β-gal reporter; for Emax: HEK293, 293 cells transfected with βER, max controls 10 nM beta-estradiol; for ERE Selectivity: β-ER over α-ER, from ERE EC50 values
T3 construct: expressed in transfected cells; host or cells: 293 cells (Human Embryonic Kidney, ATCC CRL-1573); the transfection step says 293T
Method: (§5) Cell-based Assay for ER Transcriptional Activity:
(§6) ERs are ligand-dependent transcription factors that bind the promoter regions of genes at a consensus DNA sequence called the estrogen responsive element (ERE). The ER agonist or antagonist activity of a drug was determined by measuring the amount of reporter enzyme activity expressed from a plasmid under the control of an estrogen-responsive element when cells transiently transfected with ER and the reporter plasmid were exposed to drug. These experiments were conducted according to the following methods.
(§7) Cells are grown in DMEM supplemented with 10% FBS, glutamine, sodium pyruvate and penicillin/streptomycin. Cells are grown to 80% confluency and split 1:10 or 1:20.
(§8) 2. The next day the media is changed, 1 hour prior to transfection, to fresh phenol red-free DMEM 10% FBS (charcoal stripped) and supplements.
(§9) 3. Transfections are performed using the Profection Kit from Promega #El 200, this kit is based on calcium phosphate mediated transfection. Reagents are added in sterile polystyrene tubes in the following order:
(§10) 6. The day after transfection, cells are washed 2× with PBS Ca Mg freePBS containing 1 mM EGTA pH=7.6. […] Trypsin is neutralized with 6 ml DMEM (no phenol red)+10% charcoal stripped FBS. Cells are pelleted at 1000×g for 5 min. Cell pellet is resuspended in 10 ml DMEM (no phenol red)+2% charcoal stripped FBS supplemented with glutamine and Penn/Strep and the cells are counted. Additional medium is added to dilute the cell density to 500,000 cells/ml.
(§11) 7. […] Plates are incubated for approx. 2-4 hours to allow cells to attach.
(§12) 8. Compounds are prepared at concentration of 4 mM in 100% DMSO, then diluted into medium with supplements but no serum. The first 2 dilutions are done in medium with no DMSO, then the remaining dilutions are in medium plus 0.5% DMSO to keep the vehicle constant. Max controls are 10 nM beta-estradiol and background controls are 0.5% DMSO. Compounds are normally tested in the range of 10 uM to 1 nM and are prepared at twice the concentration to be tested. The compounds are added to the cell plates, 50 ul per well. All compounds are tested with an n=4 wells for single poke and n=2 for 9-pt curves.
(§13) 9. Cells are incubated overnight at 37° C. with the compounds.
(§14) 1. After 18-24 hr of stimulation, 100 ul of 7% CPRG cocktail is added to each well, the plate is incubated at 37C for approximately 30 minutes to 2 hours or until the OD reaches between 1.0 and 2.0.
(§15) 2. The plates are read on a spectrophotometric plate reader (Spectramax, Molecular Devices) at 570 nm and raw absorbances are obtained.
(§16) Data is compiled and interpreted with Excel using XLFit or GraphPad Prism to fit concentration-response curves.

αER = molecular target: T4, αER (Homo sapiens, UniProt P03372); test: Cell-based assay for ER transcriptional activity (ERE β-gal reporter), αER-transfected 293 cells; details: for EC50: 293 cells transfected with αER and ERE β-gal reporter, read-out: ERE α-ER EC50; for ERE α-ER Max: 293 cells transfected with αER, max controls 10 nM beta-estradiol
T4 construct: expressed in transfected cells; host or cells: 293 cells (Human Embryonic Kidney, ATCC CRL-1573); the transfection step says 293T
T4 sequence (P03372 1-595): T2 sequence (P03372 1-595)
Method: as §5, §6, §7, §8, §9, §10, §11, §12, §13, §14, §15, §16

T3 sequence (Q92731 54-530 limits assumed): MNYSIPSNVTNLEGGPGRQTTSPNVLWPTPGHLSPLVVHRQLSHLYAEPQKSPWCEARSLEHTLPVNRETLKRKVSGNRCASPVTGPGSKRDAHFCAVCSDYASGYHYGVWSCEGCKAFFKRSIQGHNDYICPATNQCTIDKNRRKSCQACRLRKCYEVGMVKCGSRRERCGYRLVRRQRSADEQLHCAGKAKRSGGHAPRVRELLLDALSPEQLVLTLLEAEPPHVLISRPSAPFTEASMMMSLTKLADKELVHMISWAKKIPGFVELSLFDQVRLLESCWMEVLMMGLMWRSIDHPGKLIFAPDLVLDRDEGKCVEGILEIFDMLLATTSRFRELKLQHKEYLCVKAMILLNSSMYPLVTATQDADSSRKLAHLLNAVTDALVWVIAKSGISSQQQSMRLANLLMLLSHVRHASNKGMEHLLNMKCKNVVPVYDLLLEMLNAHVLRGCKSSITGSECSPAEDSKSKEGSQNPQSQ
T1 sequence (Q92731 whole entry): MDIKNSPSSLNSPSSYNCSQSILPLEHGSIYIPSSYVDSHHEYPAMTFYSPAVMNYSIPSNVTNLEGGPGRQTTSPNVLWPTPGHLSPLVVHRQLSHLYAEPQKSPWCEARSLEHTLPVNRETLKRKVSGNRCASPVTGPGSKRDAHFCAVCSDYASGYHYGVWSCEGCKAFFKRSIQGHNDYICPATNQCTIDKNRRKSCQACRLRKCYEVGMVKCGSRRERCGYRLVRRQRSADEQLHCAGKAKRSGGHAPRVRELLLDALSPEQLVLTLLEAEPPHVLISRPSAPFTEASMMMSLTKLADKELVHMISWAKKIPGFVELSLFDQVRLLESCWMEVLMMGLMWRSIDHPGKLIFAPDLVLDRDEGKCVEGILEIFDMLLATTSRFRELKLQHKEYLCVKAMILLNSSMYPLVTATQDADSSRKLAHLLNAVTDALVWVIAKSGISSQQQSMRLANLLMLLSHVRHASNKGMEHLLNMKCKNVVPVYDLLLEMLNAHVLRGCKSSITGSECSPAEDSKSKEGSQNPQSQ

Cc1cc(O)cc2oc(-c3ccc(O)cc3)nc12 [Example 3, 6-Hydroxy-2-(4-hydroxyphenyl)-4-methylbenzoxazole]
Ki (human recombinant ERβ): 0.0048 µM | FP Selectivity (human recombinant ERβ): 25 | Ki (human recombinant ERα): 0.121 µM | EC50 (βER): 0.023 µM | Emax (βER): 89% | ERE Selectivity (βER): 22 | EC50 (αER): 0.497 µM | ERE α-ER Max (αER): 102%

Oc1cc(Br)c2oc(-c3ccc(O)c(Cl)c3)nc2c1 [Example 12, 7-Bromo-2-(3-chloro-4-hydroxy-phenyl)-benzooxazol-5-ol]
Ki (human recombinant ERβ): 0.0018 µM | FP Selectivity (human recombinant ERβ): 30 | Ki (human recombinant ERα): 0.054 µM | EC50 (βER): 0.0005 µM | Emax (βER): 81% | ERE Selectivity (βER): 153 | EC50 (αER): 0.076 µM | ERE α-ER Max (αER): 37%

Oc1ccc(-c2nc3c(O)cc(O)cc3o2)cc1 [Example 5, 4,6-Dihydroxy-2-(4-hydroxyphenyl)benzoxazole]
Ki (human recombinant ERβ): 0.29 µM | FP Selectivity (human recombinant ERβ): 3 | Ki (human recombinant ERα): 1 µM | Emax (βER): 98% | ERE Selectivity (βER): 1.8 | ERE α-ER Max (αER): 102%

COc1ccc2oc(-c3ccc(O)cc3)nc2c1 [Example 8, 2-(4-hydroxyphenyl)-5-methoxybenzoxazole]
Ki (human recombinant ERβ): 0.148 µM | FP Selectivity (human recombinant ERβ): 3 | Ki (human recombinant ERα): 0.477 µM

Oc1ccc(-c2nc3c(Cl)cc(O)cc3o2)cc1 [Example 1, 4-Chloro-6-hydroxy-2-(4-hydroxyphenyl)benzoxazole]
Ki (human recombinant ERβ): 0.0017 µM | FP Selectivity (human recombinant ERβ): 10 | Ki (human recombinant ERα): 0.018 µM | EC50 (βER): 0.0012 µM | Emax (βER): 98% | ERE Selectivity (βER): 52 | EC50 (αER): 0.061 µM | ERE α-ER Max (αER): 103%
